The source of these data is patent publication US20210198204A1, “PRODRUGS OF KALLIKREIN INHIBITORS” (BioCryst Pharmaceuticals, Inc., priority 2016, published 2021).

Structures are written as SMILES.

The data set is described as follows: Plasma pharmacokinetics of the parent compound after a single oral dose of prodrug. In kind it is in vivo. The following applies: single oral dose 10 mg/kg, fasted male Sprague Dawley rats; plasma analyzed for the parent compound; study duration 8 h. How it is done:
Plasma pharmacokinetics of compounds was determined using three male Sprague Dawley rats following a single oral dose administration. All animals were placed in a rat metabolic cage, isolated, and fasted approximately 15 hours prior to dosing. Identifying markers were placed on each animal. Each animal was weighed prior to dose administration. Animals were administered orally with a solution formulation of test compound either in water or a combination of water/propylene glycol, at a dose of 10 mg/kg. Gavage needles were attached to syringes and filled with appropriate amount of test article to be dosed. Blood samples (approximately 500 μL) were collected from three rats at pre-dose (time 0), 0.5, 1, 2, 4, 8, 12 and 24 hr, respectively, depending on study duration. Samples were collected into labeled micro centrifuge tubes containing (heparin solution) as an anticoagulant. Plasma was immediately harvested from the blood by centrifugation at 14,000 rpm for 3 min at 4° C., and stored below −70° C. until bioanalysis. Individual plasma samples were analyzed for the parent compound, 3-[2-(4-carbamimidoyl-phenylcarbamoyl)-5-methoxy-4-vinyl-phenyl]-6-(cyclopropylmethyl-carbamoyl)-pyridine-2-carboxylic acid. As shown in Table-1, the test compounds yielded varying degrees of exposure to the parent compound. The test compounds generally provided for improved bioavailability of the parent compound as compared to dosing of the parent compound in aqueous solutions.

As for `C=Cc1cc(C(=O)Nc2ccc(C(=N)N)cc2)c(-c2ccc(C(=O)NCC3CC3)nc2C(=O)OC(C)OC(=O)[C@@H](N)C(C)C)cc1OC.Cl` (stereo partly drawn) [Compound 58f, 1-(((S)-2-amino-3-methylbutanoyl)oxy)ethyl 3-(2-((4-carbamimidoylphenyl)carbamoyl)-5-methoxy-4-vinylphenyl)-6-((cyclopropylmethyl)carbamoyl)picolinate Hydrochloride], the “AUC0-last hour (area under the curve)” value is reported as “B (B = 1,001-10,000 ng/mL)”.

With `C=Cc1cc(C(=O)Nc2ccc(C(=N)NC(=O)OCCCCCC)cc2)c(-c2ccc(C(=O)NCC3CC3)nc2C(=O)OC(C)OC(=O)[C@@H](N)C(C)C)cc1OC.Cl` (stereo partly drawn) [Compound 59b, 1-(((S)-2-amino-3-methylbutanoyl)oxy)ethyl 6-((cyclopropylmethyl)carbamoyl)-3-(2-((4-(N-((hexyloxy)carbonyl)carbamimidoyl)phenyl)carbamoyl)-5-methoxy-4-vinylphenyl)picolinate Hydrochloride], the “AUC0-last hour (area under the curve)” value was “B (B = 1,001-10,000 ng/mL)”.

As to `C=Cc1cc(C(=O)Nc2ccc(C(=N)NC(=O)OCCC(=O)OC(C)(C)C)cc2)c(-c2ccc(C(=O)NCC3CC3)nc2C(=O)OC(C)OC(=O)OC(C)C)cc1OC` (stereo not drawn) [Compound 60c, 1-((isopropoxycarbonyl)oxy)ethyl 3-(2-((4-(N-((3-(tert-butoxy)-3-oxopropoxy)carbonyl)carbamimidoyl)phenyl)carbamoyl)-5-methoxy-4-vinylphenyl)-6-((cyclopropylmethyl)carbamoyl)picolinate], the “AUC0-last hour (area under the curve)” value is recorded as “B (B = 1,001-10,000 ng/mL)”.

In the case of `C=Cc1cc(C(=O)Nc2ccc(C(=N)NC(=O)OCCCCCC)cc2)c(-c2ccc(C(=O)NCC3CC3)nc2C(=O)OCOC(=O)[C@@H](N)CCC(=O)O)cc1OC` [Compound 61d, (S)-4-amino-5-(((6-((cyclopropylmethyl)carbamoyl)-3-(2-((4-(N-((hexyloxy)carbonyl)carbamimidoyl)phenyl)carbamoyl)-5-methoxy-4-vinylphenyl)picolinoyl)oxy)methoxy)-5-oxopentanoic acid], the “AUC0-last hour (area under the curve)” value is “A (A = 0-1,000 ng/mL)”.

`C=Cc1cc(C(=O)Nc2ccc(C(=N)NC(=O)OCCCCCC)cc2)c(-c2ccc(C(=O)NCC3CC3)nc2C(=O)OCOC(=O)[C@@H](N)[C@@H](C)CC)cc1OC` [Compound 62d, (((2S,3S)-2-amino-3-methylpentanoyl)oxy)methyl 6-((cyclopropylmethyl)carbamoyl)-3-(2-((4-(N-((hexyloxy)carbonyl)carbamimidoyl)phenyl)carbamoyl)-5-methoxy-4-vinylphenyl)picolinate]: the “AUC0-last hour (area under the curve)” value is “B (B = 1,001-10,000 ng/mL)”.

For the compound `C=Cc1cc(C(=O)Nc2ccc(C(=N)NC(=O)OC(C)C)cc2)c(-c2ccc(C(=O)NCC3CC3)nc2C(=O)OC(C)OC(=O)OC(C)C)cc1OC` (stereo not drawn) [Compound 63c, 1-((isopropoxycarbonyl)oxy)ethyl 6-((cyclopropylmethyl)carbamoyl)-3-(2-((4-(N-(isopropoxycarbonyl)carbamimidoyl)phenyl)carbamoyl)-5-methoxy-4-vinylphenyl)picolinate], the “AUC0-last hour (area under the curve)” value is reported as “C (C >10,000 ng/mL)”.

For the compound `C=Cc1cc(C(=O)Nc2ccc(C(=N)NC(=O)OC(C)OC(=O)C(C)C)cc2)c(-c2ccc(C(=O)NCC3CC3)nc2C(=O)OCOC(=O)[C@@H](N)C(C)C)cc1OC` (stereo partly drawn) [Compound 64b, (((S)-2-amino-3-methylbutanoyl)oxy)methyl 6-((cyclopropylmethyl)carbamoyl)-3-(2-((4-(N-((1-(isobutyryloxy)ethoxy)carbonyl)carbamimidoyl)phenyl)carbamoyl)-5-methoxy-4-vinylphenyl)picolinate], the “AUC0-last hour (area under the curve)” value was “B (B = 1,001-10,000 ng/mL)”.

For `C=Cc1cc(C(=O)Nc2ccc(C(=N)NC(=O)OC3COCOC3)cc2)c(-c2ccc(C(=O)NCC3CC3)nc2C(=O)OC(C)OC(=O)C(C)C)cc1OC` (stereo not drawn) [Compound 65c, 1-(isobutyryloxy)ethyl 3-(2-((4-(N-(((1,3-dioxan-5-yl)oxy)carbonyl)carbamimidoyl)phenyl)carbamoyl)-5-methoxy-4-vinylphenyl)-6-((cyclopropylmethyl)carbamoyl)picolinate], the “AUC0-last hour (area under the curve)” value is listed as “B (B = 1,001-10,000 ng/mL)”.

Regarding `C=Cc1cc(C(=O)Nc2ccc(C(=N)NC(=O)OC(COC)COC)cc2)c(-c2ccc(C(=O)NCC3CC3)nc2C(=O)OC(C)OC(=O)C(C)C)cc1OC` (stereo not drawn) [Compound 66c, 1-(isobutyryloxy)ethyl 6-((cyclopropylmethyl)carbamoyl)-3-(2-((4-(N-(((1,3-dimethoxypropan-2-yl)oxy)carbonyl)carbamimidoyl)phenyl)carbamoyl)-5-methoxy-4-vinylphenyl)picolinate], the “AUC0-last hour (area under the curve)” value is listed as “B (B = 1,001-10,000 ng/mL)”.

`C=Cc1cc(C(=O)Nc2ccc(C(=N)NC(=O)OC3COCOC3)cc2)c(-c2ccc(C(=O)NCC3CC3)nc2C(=O)OC(C)OC(=O)OC(C)C)cc1OC` (stereo not drawn) [Compound 68a, 1-((isopropoxycarbonyl)oxy)ethyl 3-(2-((4-(N-(((1,3-dioxan-5-yl)oxy)carbonyl)carbamimidoyl)phenyl)carbamoyl)-5-methoxy-4-vinylphenyl)-6-((cyclopropylmethyl)carbamoyl)picolinate]: the “AUC0-last hour (area under the curve)” value was “B (B = 1,001-10,000 ng/mL)”.

Regarding `C=Cc1cc(C(=O)Nc2ccc(C(=N)NC(=O)OCCCCCC)cc2)c(-c2ccc(C(=O)NCC3CC3)nc2C(=O)OCOC(=O)[C@@H](N)Cc2ccccc2)cc1OC` [Compound 69d, (S)-((2-amino-3-phenylpropanoyl)oxy)methyl 6-((cyclopropylmethyl)carbamoyl)-3-(2-((4-(N-((hexyloxy)carbonyl)carbamimidoyl)phenyl)carbamoyl)-5-methoxy-4-vinylphenyl)picolinate], the “AUC0-last hour (area under the curve)” value is “A (A = 0-1,000 ng/mL)”.

On to `C=Cc1cc(C(=O)Nc2ccc(C(=N)NC(=O)OCCCCCC)cc2)c(-c2ccc(C(=O)NCC3CC3)nc2C(=O)OC(C)OC(=O)OC2CCCCC2)cc1OC` (stereo not drawn) [Compound 70d, 1-(((cyclohexyloxy)carbonyl)oxy)ethyl 6-((cyclopropylmethyl)carbamoyl)-3-(2-((4-(N-((hexyloxy)carbonyl)carbamimidoyl)phenyl)carbamoyl)-5-methoxy-4-vinylphenyl)picolinate], for which the “AUC0-last hour (area under the curve)” value is “B (B = 1,001-10,000 ng/mL)”.

With `C=Cc1cc(C(=O)Nc2ccc(C(=N)NC(=O)OCCC(=O)O)cc2)c(-c2ccc(C(=O)NCC3CC3)nc2C(=O)OC(C)OC(=O)OC(C)C)cc1OC` (stereo not drawn) [Compound 71a, 3-((((4-(2-(6-((cyclopropylmethyl)carbamoyl)-2-((1-((isopropoxycarbonyl)oxy)ethoxy)carbonyl)pyridin-3-yl)-4-methoxy-5-vinylbenzamido)phenyl)(imino)methyl)carbamoyl)oxy)propanoic acid], the “AUC0-last hour (area under the curve)” value is “A (A = 0-1,000 ng/mL)”.

Regarding `C=Cc1cc(C(=O)Nc2ccc(C(=N)NC(=O)OCCCCCC)cc2)c(-c2ccc(C(=O)NCC3CC3)nc2C(=O)OCOC(=O)OC(C)C)cc1OC` [Compound 72a, ((isopropoxycarbonyl)oxy)methyl 6-((cyclopropylmethyl)carbamoyl)-3-(2-((4-(N-((hexyloxy)carbonyl)carbamimidoyl)phenyl)carbamoyl)-5-methoxy-4-vinylphenyl)picolinate], the “AUC0-last hour (area under the curve)” value is given as “B (B = 1,001-10,000 ng/mL)”.

Regarding `C=Cc1cc(C(=O)Nc2ccc(C(=N)NC(=O)OC[C@@H]3C[C@@H](O)CC(=O)O3)cc2)c(-c2ccc(C(=O)NCC3CC3)nc2C(=O)OC(C)OC(=O)C(C)C)cc1OC` (stereo partly drawn) [Compound 73d, 1-(isobutyryloxy)ethyl 6-((cyclopropylmethyl)carbamoyl)-3-(2-((4-(N-((((2S,4R)-4-hydroxy-6-oxotetrahydro-2H-pyran-2-yl)methoxy)carbonyl)carbamimidoyl)phenyl)carbamoyl)-5-methoxy-4-vinylphenyl)picolinate], the “AUC0-last hour (area under the curve)” value was “A (A = 0-1,000 ng/mL)”.

On to `C=Cc1cc(C(=O)Nc2ccc(C(=N)NC(=O)OCOC(=O)[C@@H](N)C(C)C)cc2)c(-c2ccc(C(=O)NCC3CC3)nc2C(=O)OCOC(=O)[C@@H](N)C(C)C)cc1OC` [Compound 74e, (((S)-2-amino-3-methylbutanoyl)oxy)methyl 3-(2-((4-(N—(((((S)-2-amino-3-methylbutanoyl)oxy)methoxy)carbonyl)carbamimidoyl)phenyl)carbamoyl)-5-methoxy-4-vinylphenyl)-6-((cyclopropylmethyl)carbamoyl)picolinate], for which the “AUC0-last hour (area under the curve)” value was “B (B = 1,001-10,000 ng/mL)”.

For the compound `C=Cc1cc(C(=O)Nc2ccc(C(=N)NC(=O)OCCN3CCOCC3)cc2)c(-c2ccc(C(=O)NCC3CC3)nc2C(=O)OC(C)OC(=O)C(C)C)cc1OC` (stereo not drawn) [Compound 75c, 1-(isobutyryloxy)ethyl 6-((cyclopropylmethyl)carbamoyl)-3-(5-methoxy-2-((4-(N-((2-morpholinoethoxy)carbonyl)carbamimidoyl)phenyl)carbamoyl)-4-vinylphenyl)picolinate], the “AUC0-last hour (area under the curve)” value is “B (B = 1,001-10,000 ng/mL)”.

As to `C=Cc1cc(C(=O)Nc2ccc(C(=N)NC(=O)OCC3COC(C)(C)O3)cc2)c(-c2ccc(C(=O)NCC3CC3)nc2C(=O)OC(C)OC(=O)OC(C)C)cc1OC` (stereo not drawn) [Compound 77c, 1-((isopropoxycarbonyl)oxy)ethyl 6-((cyclopropylmethyl)carbamoyl)-3-(2-((4-(N-(((2,2-dimethyl-1,3-dioxolan-4-yl)methoxy)carbonyl)carbamimidoyl)phenyl)carbamoyl)-5-methoxy-4-vinylphenyl)picolinate], the “AUC0-last hour (area under the curve)” value was “B (B = 1,001-10,000 ng/mL)”.
